Experimental data taken from patent publication US20260061026A1, “COMBINATION OF INOSITOL PHOSPHORYLCERAMIDE SYNTHETASE INHIBITOR AND AMPHOTERICIN B, AND USE THEREOF” (priority 2023, published 2026).

Tested on: Cryptococcus neoformans var. grubii H99
Experiment: Fungicidal efficacy (CFU survival rate) of AbA, AmB and their combination, with or without IPC
Format: cell-based
Conditions: AmB 1 μg/mL, 1 hour in YPD medium; for the combination AbA 1 μg/mL added 6 hours before AmB
Protocol: In this example, the antifungal activity of AbA was evaluated. Specifically, the inventors tested the activity of AbA alone and in combination with AmB against Cryptococcus. In addition, the inventors also tested the effect of purified IPC on the antifungal activity of AbA alone and in combination with AmB against Cryptococcus. The specific experimental procedures are as follows.
In this example, a total of 5 groups were set up, including AbA alone, AmB alone, AbA combined with AmB, AbA combined with AmB in the presence of 1 mg/mL IPC, and AbA combined with AmB in the presence of 10 mg/mL IPC. The fungicidal efficacy of the above 5 groups of treatments against Cryptococcus neoformans var. grubii H99 (a laboratory strain) was evaluated. The survival rate of Cryptococcus after 1 hour of treatment with AmB in YPD medium was determined by calculating the CFU ratio between AmB-treated and untreated samples. AbA and IPC were added 6 hours prior to AmB treatment as a pre-treatment. AbA was purchased from Biorigin, AmB from Inalco, and IPC was extracted from an ERG6 gene knockout H99 mutant strain defective in ergosterol biosynthesis.

## C[C@@H]1[C@H](O)[C@@H](C)/C=C/C=C/C=C/C=C/C=C/C=C/C=C/[C@H](O[C@@H]2O[C@H](C)[C@@H](O)[C@H](N)[C@@H]2O)C[C@@H]2O[C@](O)(C[C@@H](O)C[C@@H](O)[C@H](O)CC[C@@H](O)C[C@@H](O)CC(=O)O[C@H]1C)C[C@H](O)[C@H]2C(=O)O [AmB, amphotericin B]
  survival rate of Cryptococcus neoformans (CFU ratio between AmB-treated and untreated samples): 39%
